According to patent US8026217B2, “Compositions and methods for treating neural anoxia and spreading depression” (Florida Atlantic University, priority 2007, dated 2011):
“Also recorded” adds a separate entry of the source. Read-outs that look alike come from different tables or passages of the source.

How the values were obtained:
zebrafish = experiment: Zebrafish behaviour during acute anoxia; assay type: in vivo; settings: whole zebrafish in anoxic water post-treatment; expected
Text: Vertebrate (zebrafish) behaviour is examined during acute anoxia. Whole zebrafish are exposed to anoxic water post-treatment with a PDE5 inhibitor, 8-bromo-GMP, KT5823, and Cantharidin. The time until the animal knocks out during anoxia is monitored.

[1] = system: adult Drosophila melanogaster; assay type: in vivo; settings: sitter adults, volatilized from DMSO 1 hr, 1 mM KT5823, 1 mM Cantharidin, 200 mM DCA, 10 mM 8-Bromo cGMP, 10 mM T-0156, versus DMSO sham
Method: FIG. 9 is a diagram illustrating in vivo treatment of adult Drosophila melanogaster with pharmacological agents. […] Adult sitters were exposed to various drugs known to target components of the PKG pathway (FIG. 8A). These drugs included: 10 mM T0156, a cGMP-specific phosphodiesterase-5 inhibitor, 10 mM 8-Bromo-cGMP, a PKG activator, 1 mM KT5823, a PKG inhibitor, 1 mM Cantharidin, a PP2A inhibitor, and 200 mM DCA, a K^+ channel activator. All drugs were solubilized in dimethyl sulfoxide (DMSO), where flies treated with only DMSO were used as sham controls. […] 10 μL of drug solution was applied to a crushed Kim wipe at the bottom of each 10 mL test vial. An additional Kim wipe was crushed over top of this to prevent direct contact between the fly and solution. 10 flies were then placed in the vial which was capped with a semi-permeable buzz-stopper, covered with a cut-out finger of a large latex glove to prevent chemical vapours from escaping, and incubated in the dark. The flies were subjected to the drug for 1 hr prior to each behavioural assay. In the drug combination experiments, 20 uL of DMSO was used as a control sham, and combinations of two pharmacological treatments were added as two separate 10 uL aliquots.
Whether or not fly PKG levels could be manipulated in vivo using a technique that uses volatilization of pharmacological agents was next examined. The role of these targets in vivo using sitter flies was examined by depositing pharmacological agents dissolved in DMSO on a cellulose tissue, and allowing them to volatize over minutes in an air tight vial at room temperature (FIG. 9). Adults were exposed to the volatilized compound for one hour in the dark and then assayed for locomotory resilience to acute hypoxia. Control sham animals (FIG. 7A) were treated with only DMSO. Compounds were chosen to target different components of the cGMP pathway (FIG. 8A) in tracheal smooth muscle and Chinese hamster ovary cells, where cGMP activates PKG, thereby activating PP2A, which then de-phosphorylates K^+ channels. The hypothesis that inhibition of this pathway would result in an increase in whole cell K^+ channel conductance, thereby leading to increased resilience to anoxic coma onset, was tested.
Locomotory Tolerance Assay during Acute Hypoxia: Ten flies (separated into males or females) from each of the three strains (rover [for^R], sitter [for^S] and for^s2) were selected and placed in three separate vials with food at least 24 hours before each experiment. At the time of the experiment, flies were emptied into 10 mL empty test vials covered with permeable sponge caps of equivalent thickness, allowing for consistent gas exchange. These test vials were then placed into a 600 mL beaker which was covered with parafilm, creating a closed chamber with an escape hole (1 cm diameter). The parafilm top was punctured with a needle connected to a gas tank (by a plastic hose), through which the inert gas argon was expelled. […] The needle tip was fastened to the bottom of the beaker and inserted into a larger sponge of similar texture to the vial sponge caps to ensure that gas expelled from the needle was dispersed equally throughout the beaker. Also, to ensure that all test vial positions in the beaker received equal gas flow, test vial positions were alternated every trial to reduce variability.
The experiment required exposing the test vials with 10 flies in the container to pure argon gas expelled from the tank at a flow rate of 600 cc/min+/−5%. Time of behavioural failure was recorded by observing the fly undergo a seizure, which was quickly followed by an anoxic coma.

mammals (mouse or rat) = experiment: Spreading depression in mammals; assay type: in vivo; settings: expected
Text: The pharmacological effects of a PDE5 inhibitor, 8-bromo-GMP, KT5823, and Cantharidin during spreading depression are examined in mammals (mouse or rat).

PKG = PKG enzyme activity assay on heads of treated flies; assay type: biochemical, Drosophila melanogaster; settings: heads of sitter flies treated in vivo with volatilized agent, versus sham control
Method: PKG enzyme activity assays: PKG enzyme activity assays were conducted according to the procedure outlined in Kaun et al. (J Exp Biol. 210(Pt 20):3547-3558, 2007). Adult Drosophila were decapitated and the heads were homogenized in 25 mM 1-1 Tris (pH 7.4), 1 mM 1-1 EDTA, 2 mM 1-1 EGTA, 5 mM 1-1 β-mercaptoethanol, 0.05% Triton X-100 and protease inhibitor solution (Roche Diagnostics). Following microcentrifugation for 5 min, the supernatant was removed and those supernatants containing equal amounts of total protein were examined for PKG enzyme activity. The reaction mixture contained the following substances: 40 mM 1-1 Tris-HCl (pH 7.4), 20 mM 1-1 magnesium acetate, 0.2 mM 1-1 [γ^32P]ATP (500-1000 c.p.m. pmol−1), […] heptapeptide (RKRSRAE), (SEQ ID NO:6), (3 mM 1-1 cGMP and a highly specific inhibitor of cAMP-dependent protein kinase. The next step of the procedure involved incubating the reaction mixtures at a temperature of 30° C. for 10 min, followed by ending the reaction by spotting 70 μl of the reaction mixture onto Whatman P-81 filters. To remove any unreacted [γ^32P]ATP, these spots were then soaked with 75 mM 1-1 H3PO4 for 5 min and washed three times with 75 mM 1-1 H3PO4. Before quantifying enzyme activity, filters were rinsed with 100% ethanol and air dried. To calculate PKG enzyme activity, counts were taken in a Wallac 1409 Liquid Scintillation Counter using universal scintillation cocktail (ICN). PKG activity was presented in the figures as pmol of ^32P incorporated into the substrate min−1 mg−1 protein.

Row | SMILES | time until the animal knocks out during anoxia (zebrafish) | time to anoxic coma onset during acute hypoxia, single agents ([1]; listed as 8-Bromo cGMP) | time to anoxic coma onset during acute hypoxia, single agents ([1]; listed as 8-bromo cGMP) | SD-like events and neural function (mammals (mouse or rat)) | head PKG enzyme activity (PKG; listed as 8-Bromo cGMP) | head PKG enzyme activity (PKG; listed as 8-bromo cGMP) | time to anoxic coma onset during acute hypoxia, single agents [1] | head PKG enzyme activity (PKG)
1 | Nc1nc2c(nc(Br)n2[C@@H]2O[C@@H]3COP(=O)(O)O[C@H]3[C@H]2O)c(=O)[nH]1 [8-Br-cGMP] | increased sensitivity to anoxia causing early failure of behaviour (neural function) | exhibited significant sensitivity to anoxic coma | enhanced sensitivity to acute hypoxia; also recorded: expedited locomotory failure during acute hypoxia of sitters to rover levels | increased SD-like events causing early failure of neural function | demonstrated significant effects compared to that of the sham control | induced an increase in head PKG activity levels; also recorded: increasing head PKG activity levels significantly beyond rover levels |  | 
2 | COC(=O)[C@@]1(OC)C[C@H]2O[C@]1(C)n1c3ccccc3c3c4c(c5c6ccccc6n2c5c31)C(=O)N(C)C4 [KT5823, (9S, 10R, 12R)-2,3,9,10,11,12-Hexahydro-10-methoxy-2-9-dimethyl-1-oxo-9,12-epoxy-1H-diindolo-[1,2,3-fg:3′,2′,1′-k1]pyrrolo[3,4-i][1,6]benzodiazocine-10-carboxylic acid methyl ester] | neuroprotection and prolonged behaviour when subject to anoxia |  |  | neuroprotection and reduces SD-like events thereby prolonging neural function |  |  | significant increase in tolerance to acute hypoxia; also recorded: demonstrated significant resilience to anoxic coma | significantly reducing PKG activity; also recorded: demonstrated significant effects compared to that of the sham control
